Where two headings read alike, the source gives them in different places.
Key:
[1] = molecular target: T1, human CB2R (Homo sapiens, UniProt P34972); experiment: in vitro binding affinity assay, membrane homogenates of CHO cells stably transfected with human CB2R, radioligand [3H]WIN55212-2; conditions: for Selectivity index (SI): SI = K iCB1R/K iCB2R; for Ki / K iCB2R mean: human CB2R, CHO membranes, [3H]WIN55212-2, mean of two values; for Ki: read-out: K iCB2R mean
T1 construct: expressed in transfected cells; host or cells: Chinese hamster ovary (CHO) cells, stably transfected; crude membrane homogenates
Text: (§1) The eight target compounds 2 o , m , p , 3 o , m , p , 4, and 5 have been investigated in in vitro binding affinity assays using crude membrane preparations obtained from Chinese hamster ovary cells stably transfected with either human CB1R or CB2R and the target‐specific radioligands [ ^ 3 H]SR141716A and [ ^ 3 H]WIN55212‐2, respectively (structures shown in Figure S90, Supporting Information).
(§2) The affinity assays have been performed with membrane homogenates from Chinese hamster ovary cells (CHO) stably transfected either with human CB2R or CB1R. Already published protocols have been used.^[ [99] ^]

[2] = stability in DMSO/H2O (1:1, v/v) by HPLC-UV-MS; type: physicochemical; conditions: RP-HPLC
Protocol: The stability was determined analogously to the purity determination and as described in a previous publication.^[ [79] ^] Instead of CH3CN or MeOH, a solvent mixture of DMSO/H2O (1:1, v/v) was used for all samples, as well as the blank measurements. Measurements were conducted directly after solvent addition and up to three days (Figure S82–S89, Supporting Information).
5 Determi naƟon of the Stability of Compounds 2o,m,p, 3o,m,p, 4, and 5
The stability measurements have been performed with an HPLC-UV-MS on an RP column. Blank samples of pure DMSO/H20 (1:1, v/v) have been measured prior to the target compounds. The target compounds have been dissolved in DMSO/H2O (1:1, v/v) for stability determinaƟon. The measurements have been started directly aŌer the addiƟon of the water. The double peaks or shoulders of the signals of the compound are related to the column that has been used. Broad signals have been obser ved in case of the nido-carborane derivaƟves .
Figure S82. RP-HPLC chromatograms of blank (DMSO/H2O, black and dark blue) and compound 2o, retention time: 11.4 min, purity after 2.5 d: […]

[3] = molecular target: T2, human CB1R (Homo sapiens, UniProt P21554); experiment: in vitro binding affinity assay, membrane homogenates of CHO cells stably transfected with human CB1R, radioligand [3H]SR141716A; conditions: CHO membranes, mean of two values (c: mean of three values), read-out: K iCB1R mean
T2 construct: expressed in transfected cells; host or cells: Chinese hamster ovary (CHO) cells, stably transfected; crude membrane homogenates
Text: as §1, §2

[4] = molecular target: CB2R; design: method as in PMID 25272206; conditions: mean of at least three separate experiments in duplicate, other testing conditions; read-out: K iCB2R mean; cited from earlier work
[5] = system: CB2R; experiment: CB2R binding affinity, literature value of Lucchesi et al., other testing conditions; conditions: SI = K iCB1R/K iCB2R, from literature values
Text: Table 1 Binding affinities of target compounds 2 o , m , p , 3 o , m , p , 4, and 5. | column: Selectivity index (SI) ^e)

[6] = molecular target: CB1R; design: method as in PMID 25272206; conditions: mean of at least three separate experiments in duplicate, other testing conditions; read-out: K iCB1R mean; cited from earlier work
[7] = molecular target: CB2R; design: method as in PMID 36944112; conditions: previously reported; L7 (ortho): one value; read-out: K iCB2R mean; cited from earlier work

T1 sequence (P34972 whole entry): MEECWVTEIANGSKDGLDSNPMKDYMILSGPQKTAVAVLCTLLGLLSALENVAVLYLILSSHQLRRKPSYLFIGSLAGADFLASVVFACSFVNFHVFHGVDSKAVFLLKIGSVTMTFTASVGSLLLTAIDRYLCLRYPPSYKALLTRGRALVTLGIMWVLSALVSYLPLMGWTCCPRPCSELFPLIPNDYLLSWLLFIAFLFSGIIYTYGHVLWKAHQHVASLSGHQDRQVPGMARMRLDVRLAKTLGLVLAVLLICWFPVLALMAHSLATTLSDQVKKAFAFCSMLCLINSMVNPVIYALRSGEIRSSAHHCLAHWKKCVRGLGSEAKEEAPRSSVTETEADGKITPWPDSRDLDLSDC
T2 sequence (P21554 whole entry): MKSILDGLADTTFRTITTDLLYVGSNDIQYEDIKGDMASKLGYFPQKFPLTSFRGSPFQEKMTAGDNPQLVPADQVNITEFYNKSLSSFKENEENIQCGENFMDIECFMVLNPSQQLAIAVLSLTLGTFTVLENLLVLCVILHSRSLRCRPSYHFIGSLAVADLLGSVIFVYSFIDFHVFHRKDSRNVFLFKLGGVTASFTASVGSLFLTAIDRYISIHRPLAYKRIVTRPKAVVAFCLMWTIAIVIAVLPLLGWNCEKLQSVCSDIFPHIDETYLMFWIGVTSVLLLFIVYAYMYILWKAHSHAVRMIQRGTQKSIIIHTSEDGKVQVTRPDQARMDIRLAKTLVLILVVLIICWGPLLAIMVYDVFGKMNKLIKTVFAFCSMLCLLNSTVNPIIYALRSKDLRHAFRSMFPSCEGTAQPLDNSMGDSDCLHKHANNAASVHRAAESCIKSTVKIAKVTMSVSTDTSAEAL

Compound | Selectivity index (SI) [1] | Ki [1] | Ki [3] | purity after 1 d (stability) [2] | other results
1‐(4‐Fluorobenzyl)‐6‐iodo‐2‐oxo‐N‐(1,2‐closo‐dicarba‐dodecaborane)‐1,2‐dihydro‐1,8‐naphthyridine‐3‐carboxamide [3 o] | 260 | 15.2 nM | 3940 nM |  | purity after 6 h (stability) [2]: 93%; purity after 6 h (stability) ([2]; listed as 3o): ~ 93%
1‐(4‐Fluorobenzyl)‐6‐iodo‐2‐oxo‐N‐(1,7‐closo‐dicarba‐dodecaborane)‐1,2‐dihydro‐1,8‐naphthyridine‐3‐carboxamide [3 m] | 877 | 6.95 nM | 6090 nM | ~ 98% | 
1‐(4‐Fluorobenzyl)‐6‐iodo‐2‐oxo‐N‐(1,12‐closo‐dicarba‐dodecaborane)‐1,2‐dihydro‐1,8‐naphthyridine‐3‐carboxamide [3 p] | 730 | 7.55 nM | 5520 nM | > 98% | 
6‐Bromo‐1‐(4‐fluorobenzyl)‐2‐oxo‐N‐(1,2‐closo‐dicarba‐dodecaborane)‐1,2‐dihydro‐1,8‐naphthyridine‐3‐carboxamide [2 o] | 3378 | 29 nM | 97800 nM |  | purity after 2.5 d (stability) ([2]; after 2.5 d): > 98%
6‐Bromo‐1‐(4‐fluorobenzyl)‐2‐oxo‐N‐(1,7‐closo‐dicarba‐dodecaborane)‐1,2‐dihydro‐1,8‐naphthyridine‐3‐carboxamide [2 m] | 273 | 6.16 nM | 1680 nM | ~ 98% | 
6‐Bromo‐1‐(4‐fluorobenzyl)‐2‐oxo‐N‐(1,12‐closo‐dicarba‐dodecaborane)‐1,2‐dihydro‐1,8‐naphthyridine‐3‐carboxamide [2 p] | 937 | 7.71 nM | 7220 nM |  | 
C[C@H]1CC[C@@H](NC(=O)c2cc3cc(Br)cnc3n(Cc3ccc(F)cc3)c2=O)CC1 [L1 (cis)] |  |  |  |  | Ki [4]: 0.12 ± 0.002 nM; Selectivity index (SI) [5]: 1010; Ki [6]: 121 ± 5.32 nM
(Z)‐N‐[3‐(4‐fluoro[^18F]butyl‐d 8)‐4,5‐dimethylthiazole‐2(3 H)‐ylidene]‐(1,7‐dicarba‐closo‐dodecaboranyl)‐carboxamide [[18F]LUZ5-d8] |  |  |  |  | Ki [7]: 0.8 nM
Sodium 1‐(4‐Fluorobenzyl)‐6‐iodo‐2‐oxo‐N‐(7,8‐nido‐dicarba‐dodecahydroundecaborate(–1))‐1,2‐dihydro‐1,8‐naphthyridine‐3‐carboxamide [Compound 5] | 247 | 368 nM | 90800 nM | > 97% | K iCB2R mean [1]: very low affinity
Sodium 6‐Bromo‐1‐(4‐fluorobenzyl)‐2‐oxo‐N‐(7,8‐nido‐dicarba‐dodecahydroundecaborate(–1))‐1,2‐dihydro‐1,8‐naphthyridine‐3‐carboxamide [Compound 4] | 62 | 857 nM | 53200 nM |  | K iCB2R mean [1]: very low affinity; purity after 3 d (stability) ([2]; after 3 d): ~ 98%
